# Source: PMC8063935, “Amphipathic Peptide Antibiotics with Potent Activity against Multidrug-Resistant Pathogens” (Pharmaceutics, 2021)
# Where a SMILES comes first, the peptide text is derived from it.
# Key:
# MRSA T144 [1] = assay: microbe, parasite or virus in culture; assay type: cell-based, Staphylococcus aureus
# Protocol: (§1) The MICs of all drugs were determined by micro-broth dilution method according to CLSI 2018 guidelines. The bacterial suspension used in the experiment was appropriate 1.5 × 10^6 colony-forming units (CFUs) per mL and mixed with the drug solution in a sterilized 96-well microtiter plate (Corning, New York, USA), then incubated at 37 °C for 16–18 h. MIC value was defined as the minimum drug concentration without visible bacteria. Meanwhile, the density of the bacteria at 600 nm was measured, and the corresponding IC50 was calculated using log (inhibitor) vs. response variable slope (four parameters) in Graphpad Prism version 8.3.0 software (San Diego, CA, USA). To assess the role of ROS production in the antibacterial activity of WW307, increasing concentrations of N-acetylcysteine (NAC) from 0 to 5 mM were added in culture medium, followed by MICs test.
# S. aureus G16 (RIF^R) = assay: microbe, parasite or virus in culture; assay type: cell-based, Staphylococcus aureus; details: S. aureus G16 (RIF^R)
# Protocol: as §1
# E. coli 1F28 (tet(X4)) = assay: microbe, parasite or virus in culture; assay type: cell-based, Escherichia coli
# Protocol: as §1
# [2] = system: E. coli B2 (mcr-1 + blaNDM-5); assay: microbe, parasite or virus in culture; assay type: cell-based, Escherichia coli; details: E. coli B2 (mcr-1 + blaNDM-5)
# Protocol: as §1
# E. coli G92 (mcr-1) = assay: microbe, parasite or virus in culture; assay type: cell-based, Escherichia coli; details: E. coli G92 (mcr-1)
# Protocol: as §1
# E. coli C3 (blaNDM-1) = assay: MIC / IC50, micro-broth dilution; assay type: cell-based, Escherichia coli
# Protocol: as §1
# E. coli CP131 (mcr-3) = assay: MIC / IC50, micro-broth dilution; assay type: cell-based, Escherichia coli; details: E. coli CP131 (mcr-3)
# Protocol: as §1
# E. coli G6 (blaNDM-5) = assay: MIC / IC50, micro-broth dilution; assay type: cell-based, Escherichia coli
# Protocol: as §1
# [3] = system: A. baumannii C222 (tet(X6)); assay: microbe, parasite or virus in culture; assay type: cell-based, Acinetobacter baumannii; details: A. baumannii C222 (tet(X6))
# Protocol: as §1
# [4] = system: P. cibarius HNCF44W (blaNDM-1 + tet(X6)); assay: MIC / IC50, micro-broth dilution; assay type: cell-based
# Protocol: as §1
# MRSA T144 [5] = assay: Thermal, pH, salts, serum and protease stability (residual MIC); assay type: cell-based, Staphylococcus aureus
# Protocol: (§2) In order to evaluate the influence of ions and serum on the activity of AMPs, 10 mM Na^+, K^+, Mg^2+, 10% Dulbecco’s Modified Eagle Medium (DMEM) and fetal bovine serum (FBS) were added into Mueller-Hinton broth (MHB) culture medium for subsequent MIC tests.
# (§3) Drugs were incubated at different temperatures (range from 40 to 121 °C) and pH (range from 2 to 12) for 1 h, then adjust back to original pH, following MIC test to evaluate their residual activity. To evaluate the protease stability, pepsin, trypsin, and papain were mixed with WW307 to achieve a final concentration of 1 mM, and then incubated at 37 °C for 1 h. After incubation, the remaining protease was precipitated using acetonitrile and removed by centrifugation at 3000× g, following for MIC test.
# E. coli B2 [6] = assay: as above; assay type: cell-based, Escherichia coli
# Protocol: as §2, §3
# Sheep RBCs = assay: Hemolysis analysis; assay type: cell-based; details: 8% sheep red blood cell suspension, 37 °C, 1 h, released hemoglobin at 576 nm; PBS negative, ddH2O positive control
# Protocol: The hemolytic activity on all peptides was evaluated based on previous report. Briefly, fresh Sheep RBCs were washed twice with phosphate buffer (PBS), and then 8% red blood cell suspension was prepared. The increasing concentrations of AMPs and melittin were mixed with 8% red blood cell suspension, respectively, and incubated at 37 °C for 1 h. The sterilized PBS and double-distilled water (ddH2O) were used as blank and positive control, respectively. Afterwards, the supernatant was centrifuged to measure the absorption of released hemoglobin at 576 nm by an Infinite M200 Microplate reader (Tecan, Männedorf, Switzerland). The corresponding hemolysis rate was calculated.
# MRSA T144 [7] = assay: Thermal, pH, salts, serum and protease stability (residual MIC); assay type: cell-based, Staphylococcus aureus; details: protease precipitated with acetonitrile, then MIC test
# E. coli B2 [8] = assay: as above; assay type: cell-based, Escherichia coli; details: protease precipitated with acetonitrile, then MIC test
# [9] = OD600 of micro-broth dilution plates, four-parameter fit
# [10] = micro-broth dilution, CLSI 2018, ~1.5 × 10^6 CFUs per mL, 37 °C, 16–18 h
# [11] = 10% fetal bovine serum (FBS) added into MHB
# [12] = WW307 incubated at 40 °C for 1 h before MIC test
# [13] = WW307 incubated at 60 °C for 1 h before MIC test
# [14] = WW307 incubated at 80 °C for 1 h before MIC test
# [15] = WW307 incubated at 100 °C for 1 h before MIC test
# [16] = WW307 incubated at 121 °C for 1 h before MIC test
# [17] = WW307 incubated at pH 2 for 1 h, adjusted back to original pH, then MIC test
# [18] = WW307 incubated at pH 4 for 1 h, adjusted back to original pH, then MIC test
# [19] = WW307 incubated at pH 6 for 1 h, adjusted back to original pH, then MIC test
# [20] = WW307 incubated at pH 8 for 1 h, adjusted back to original pH, then MIC test
# [21] = WW307 incubated at pH 10 for 1 h, adjusted back to original pH, then MIC test
# [22] = WW307 incubated at pH 12 for 1 h, adjusted back to original pH, then MIC test
# [23] = WW307 incubated with trypsin (1 mg/mL) at 37 °C for 1 h
structure (smiles),measurement,setting,value
CC(C)[C@H](NC(=O)[C@H](Cc1c[nH]c2ccccc12)NC(=O)[C@H](Cc1c[nH]c2ccccc12)NC(=O)[C@H](Cc1c[nH]c2ccccc12)NC(=O)[C@H](Cc1c[nH]c2ccccc12)NC(=O)[C@H](CCCNC(=N)N)NC(=O)[C@H](CCCNC(=N)N)NC(=O)[C@@H](N)CCCNC(=N)N)C(N)=O [WW307] (H-RRRWWWWV-NH2),IC50,MRSA T144 [1]; [9],1.03 µg/mL
same,MIC,MRSA T144 [1]; [10],4 µg/mL
same,IC50,S. aureus G16 (RIF^R); [9],0.52 µg/mL
same,MIC,S. aureus G16 (RIF^R); [10],1 µg/mL
same,IC50,E. coli 1F28 (tet(X4)); [9],2.13 µg/mL
same,MIC,E. coli 1F28 (tet(X4)); [10],4 µg/mL
same,IC50,[2]; [9],4.18 µg/mL
same,MIC,[2]; [10],4 µg/mL
same,IC50,E. coli G92 (mcr-1); [9],2.18 µg/mL
same,MIC,E. coli G92 (mcr-1); [10],4 µg/mL
same,IC50,E. coli C3 (blaNDM-1); [9],1.82 µg/mL
same,MIC,E. coli C3 (blaNDM-1); [10],4 µg/mL
same,IC50,E. coli CP131 (mcr-3); [9],2.07 µg/mL
same,MIC,E. coli CP131 (mcr-3); [10],4 µg/mL
same,IC50,E. coli G6 (blaNDM-5); [9],2.25 µg/mL
same,MIC,E. coli G6 (blaNDM-5); [10],8 µg/mL
same,IC50,[3]; [9],2.15 µg/mL
same,MIC,[3]; [10],4 µg/mL
same,IC50,[4]; [9],2.21 µg/mL
same,MIC,[4]; [10],2 µg/mL
same,MIC with K^+,MRSA T144 [5]; 10 mM K^+ added into MHB,4 µg/mL
same,MIC with Mg^2+,MRSA T144 [5]; 10 mM Mg^2+ added into MHB,16 µg/mL
same,MIC with Na^+,MRSA T144 [5]; 10 mM Na^+ added into MHB,4 µg/mL
same,MIC with DMEM (10%),MRSA T144 [5]; 10% DMEM added into MHB,8 µg/mL
same,MIC with Serum (10%),MRSA T144 [5]; [11],8 µg/mL
same,MIC after 40 °C,MRSA T144 [5]; [12],4 µg/mL
same,MIC after 60 °C,MRSA T144 [5]; [13],4 µg/mL
same,MIC after 80 °C,MRSA T144 [5]; [14],4 µg/mL
same,MIC after 100 °C,MRSA T144 [5]; [15],4 µg/mL
same,MIC after 121 °C,MRSA T144 [5]; [16],4 µg/mL
same,MIC after pH 2,MRSA T144 [5]; [17],4 μg/mL
same,MIC after pH 4,MRSA T144 [5]; [18],4 μg/mL
same,MIC after pH 6,MRSA T144 [5]; [19],4 μg/mL
same,MIC after pH 8,MRSA T144 [5]; [20],4 μg/mL
same,MIC after pH 10,MRSA T144 [5]; [21],4 μg/mL
same,MIC after pH 12,MRSA T144 [5]; [22],4 μg/mL
same,MIC after papain,"MRSA T144 [5]; WW307 incubated with papain (1 mg/mL) at 37 °C for 1 h, protease precipitated with acetonitrile, then MIC test",>128 µg/mL
same,"MIC, Control",MRSA T144 [5]; untreated WW307,4 µg/mL
same,MIC with K^+,E. coli B2 [6]; 10 mM K^+ added into MHB,4 µg/mL
same,MIC with Mg^2+,E. coli B2 [6]; 10 mM Mg^2+ added into MHB,16 µg/mL
same,MIC with Na^+,E. coli B2 [6]; 10 mM Na^+ added into MHB,4 µg/mL
same,MIC with DMEM (10%),E. coli B2 [6]; 10% DMEM added into MHB,8 µg/mL
same,MIC with Serum (10%),E. coli B2 [6]; [11],8 µg/mL
same,MIC after 40 °C,E. coli B2 [6]; [12],4 µg/mL
same,MIC after 60 °C,E. coli B2 [6]; [13],4 µg/mL
same,MIC after 80 °C,E. coli B2 [6]; [14],4 µg/mL
same,MIC after 100 °C,E. coli B2 [6]; [15],4 µg/mL
same,MIC after 121 °C,E. coli B2 [6]; [16],4 µg/mL
same,MIC after pH 2,E. coli B2 [6]; [17],4 μg/mL
same,MIC after pH 4,E. coli B2 [6]; [18],4 μg/mL
same,MIC after pH 6,E. coli B2 [6]; [19],4 μg/mL
same,MIC after pH 8,E. coli B2 [6]; [20],4 μg/mL
same,MIC after pH 10,E. coli B2 [6]; [21],4 μg/mL
same,MIC after pH 12,E. coli B2 [6]; [22],8 μg/mL
same,MIC after pepsin,"E. coli B2 [6]; WW307 incubated with pepsin (1 mg/mL) at 37 °C for 1 h, protease precipitated with acetonitrile, then MIC test",4 µg/mL
same,"MIC, Control",E. coli B2 [6]; untreated WW307,4 µg/mL
same,HL50 (peptide concentration that causes 50% hemolysis),Sheep RBCs,> 128 µg/mL
same,MIC after pepsin,MRSA T144 [7]; WW307 incubated with pepsin (1 mg/mL) at 37 °C for 1 h,4 µg/mL
same,MIC after trypsin,MRSA T144 [7]; [23],>128 µg/mL
same,MIC after papain,E. coli B2 [8]; WW307 incubated with papain (1 mg/mL) at 37 °C for 1 h,>128 µg/mL
same,MIC after trypsin,E. coli B2 [8]; [23],>128 µg/mL
